Measured values: patent US9000176B2, “Pyrazole derivatives, preparation method thereof, and composition for prevention and treatment of osteoporosis containing same” (Ewha University—Industry Collaboration Foundation, priority 2009, dated 2015)

These compounds were tested on generation of reactive oxygen species in the murine kidney membrane (assay: Lucigenin-based assay of reactive oxygen species generation in isolated kidney membrane). Details: 37° C. for 10 minutes, luminescence, compound 40, 10, 2.5, 0.625, 0 μM, read-out: EC50 (inhibition of generation of reactive oxygen species).
Assay type: biochemical, rat (Rattus norvegicus)
Procedure: A kidney was isolated from a rat (Rattus norvegicus) and washed with phosphate buffered saline (PBS). The tissue was soaked in 20 mL of PBS buffer containing a protease inhibitor (Aprotinin 1 μg/mL-USB 11388, Leupeptin 1 μg/mL-USB-18413), finely disrupted using a mixer, and then transferred to a 50 mL conical tube (SPL 50050), followed by centrifugation at 10000 g for 10 minutes (MF-600 plus, Hanil) to sediment the undisrupted tissue. The supernatant was separated and collected in a fresh tube. The tube was placed in ice and subjected to sonication about 4 times each cycle for 30 seconds until the supernatant became clear (Branson Digital Sonifier, Model CE Converter 102C). The supernatant was transferred to a high-speed centrifugation tube (Beckman 331372) and then centrifuged at 100000 g for 1 hour (Optima™ L-90 K Preparative Ultracentrifuge, SW41Ti rotor, Beckman). After the supernatant was discarded, the remaining pellet was washed once with cold PBS and dissolved in 500 μL of cold PBS containing a protease inhibitor to obtain a murine kidney membrane.
Reactive oxygen species generated in the thus-obtained kidney membrane was analyzed by a lucigenin-based assay.
Specifically, each of the compounds synthesized in Examples of the present invention (40 μM, 10 μM, 2.5 μM, 0.625 μM, and 0 μM) was placed in a luminescence assay microplate, and the isolated kidney membrane and lucigenin were sequentially added thereto, followed by incubation at 37° C. for 10 minutes. Then, the intensity of luminescence was measured in a luminometer (MicroLumatPlus LB96V Microplate Luminometer, Berthold) to assay the generation of reactive oxygen species in the murine kidney membrane, followed by calculating an EC50 value of the inventive compounds.

| Structure (SMILES) | EC50 [nM] |
| --- | --- |
| Oc1cc(-c2ccc(Br)cc2)nn1-c1ccccn1 [Compound 15, 3-(4-bromophenyl)-1-(pyridin-2-yl)-1H-pyrazol-5-ol] | 1200 |
| Oc1cc(-c2ccccc2I)nn1-c1ccccn1 [Compound 16, 3-(2-iodophenyl)-1-(pyridin-2-yl)-1H-pyrazol-5-ol] | 2500 |
| Oc1cc(-c2cccc(I)c2)nn1-c1ccccn1 [Compound 17, 3-(3-iodophenyl)-1-(pyridin-2-yl)-1H-pyrazol-5-ol] | 700 |
| Oc1cc(-c2ccc(I)cc2)nn1-c1ccccn1 [Compound 18, 3-(4-iodophenyl)-1-(pyridin-2-yl)-1H-pyrazol-5-ol] | 450 |
| Oc1cc(-c2ccc(I)cc2)nn1-c1ncccn1 [Compound 19, 3-(4-iodophenyl)-1-(pyrimidin-2-yl)-1H-pyrazol-5-ol] | 800 |
| CC(C)[Si](Oc1cc(-c2ccc(I)cc2)nn1-c1ccccn1)(C(C)C)C(C)C [Compound 20, 2-(3-(4-iodophenyl)-5-(triisoropylsilyloxy)-1H-pyrazol-1-yl)pyridine] | 1500 |
| CC(=O)Oc1cc(-c2ccc(Br)cc2)nn1-c1ccccn1 [Compound 26, 3-(4-bromophenyl)-1-(pyridin-2-yl)-1H-pyrazol-5-yl acetate] | 1300 |
| CC(C)(C)OC(=O)Oc1cc(-c2ccc(-c3ccccc3)cc2)nn1-c1ncccn1 [Compound 48, 3-(biphenyl-4-yl)-1-(pyrimidin-2-yl)-1H-pyrazol-5-yl tert-butyl carbonate] | 1200 |
| CC(C)[Si](Oc1cc(-c2ccc(-c3ccc(Br)cc3)cc2)nn1-c1ccccn1)(C(C)C)C(C)C [Compound 51, 2-(3-(4′-bromobiphenyl-4-yl)-5-(triisopropylsilyloxy)-1H-pyrazol-1-yl)pyridine] | 400 |
| c1ccc(B(Oc2cc(-c3ccc(-c4ccccc4)cc3)nn2-c2ccccn2)c2ccccc2)cc1 [Compound 52, 2-(3-(biphenyl-4-yl)-5-(diphenylboryloxy)-1H-pyrazol-1-yl)pyridine] | 500 |
| Oc1cc(-c2ccc(-c3ccccc3)cc2)nn1-c1ccccn1 [Compound 54, 3-(biphenyl-4-yl)-1-(pyridin-2-yl)-1H-pyrazol-5-ol] | 400 |
| Oc1cc(-c2ccc(-c3ccc4c(c3)OCO4)cc2)nn1-c1ccccn1 [Compound 55, 3-(4-(benzo[d][1,3]-dioxol-5-yl)phenyl)-1-(pyridin-2-yl)-1H-pyrazol-5-ol] | 500 |
| Oc1cc(-c2ccccc2-c2ccc3c(c2)OCO3)nn1-c1ccccn1 [Compound 59, 3-(2-(benzo[d][1,3]dioxol-5-yl)phenyl)-1-(pyridin-2-yl)-1H-pyrazol-5-ol] | 1400 |
| Oc1cc(-c2cccc(-c3ccccc3)c2)nn1-c1ccccn1 [Compound 61] | 400 |
| Oc1cc(-c2cccc(-c3ccccc3Oc3ccccc3)c2)nn1-c1ccccn1 [Compound 65, 3-(2′-phenoxybiphenyl-3-yl)-1-(pyridin-2-yl)-1H-pyrazol-5-ol] | 625 |
| Oc1cc(-c2cccc(-c3cccc(-c4ccccc4)c3)c2)nn1-c1ccccn1 [Compound 67, 3-(3′-phenylbiphenyl-3-yl)-1-(pyridin-2-yl)-1H-pyrazol-5-ol] | 400 |
| Oc1cc(-c2ccc(-c3ccc(Br)cc3)cc2)nn1-c1ccccn1 [Compound 72, 3-(4′-bromobiphenyl-4-yl)-1-(pyridin-2-yl)-1H-pyrazol-5-ol] | 2500 |
| Oc1cc(-c2ccc(-c3ccccc3Oc3ccccc3)cc2)nn1-c1ccccn1 [Compound 74, 3-(2′-phenoxybiphenyl-4-yl)-1-(pyridin-2-yl)-1H-pyrazol-5-ol] | 400 |
| Oc1cc(-c2ccc(-c3ccccc3)cc2)nn1-c1ncccn1 [Compound 75, 3-(biphenyl-4-yl)-1-(pyrimidin-2-yl)-1H-pyrazol-5-ol] | 600 |
| CCCc1c(-c2ccccc2)nn(-c2ccccn2)c1O [Compound 78, 3-phenyl-4-propyl-1-(pyridin-2-yl)-1H-pyrazol-5-ol] | 10000 |
| Oc1c(Cc2ccccc2)c(-c2ccccc2)nn1-c1ccccn1 [Compound 79, 4-benzyl-3-phenyl-1-(pyridin-2-yl)-1H-pyrazol-5-ol] | 3000 |
